Measured values reported in patent US11440907B1 (Merck Patent GmbH, priority 2018, dated 2022).

Columns and labels:
Assay type in all cases: cell-based
[1] = tested on: intracellular calcium flux in Colo-205 cells; assay: Calcium flux assay (FLIPR Calcium 5 Assay Kit, FLIPR3); details: Homo sapiens, 0.6 h, calcium flux measured over 36 minutes, read-out: Colo 205 Calcium Flux assay 384w Boston Ca assay FLIPR3 Colo EC50
Protocol: Compounds described herein induced ER stress by causing intracellular calcium flux. Calcium flux was measured in Colo-205 cells using the FLIPR® Calcium 5 Assay Kit according to manufacturer's protocol (Molecular Devices, Cat. #R8186) on a FLIPR3 system (Molecular Devices). Calcium flux is measured over 36 minutes. The Colo-205 calcium flux assay data are summarized in Table 3: A<0.6 μM; 0.6 μM≤B<2.0 μM; 2.0 μM≤C<10.0 μM; D≥10.0 μM.

[2] = tested on: β-catenin-TCF-mediated reporter transcription activity in Colo 205 cells; assay: Colo 205 reporter assay (TCF/LEF promoter-driven firefly luciferase); details: Homo sapiens; Colo 205 TCF/LEF luciferase reporter, 5 hours after compound addition, 384 well; read-out: Colo205 IC50
[3] = tested on: XBP1(u)-luciferase splicing reporter in HepG2 hepatoma cells; assay: HepG2 XBP1 reporter assay (XBP1(u)-Luc); details: Homo sapiens, 6 hours after compound addition, Table 3, read-out: XBP1-luc HepG2 1 EC50

Row | Structure (SMILES) | EC50 [1] | IC50 [2] | EC50 [3]
1 | COc1cc(F)ccc1C1CCCCCN1c1cc(C)nc(N)n1 (stereo not drawn) [I-22, 4-(2-(4-fluoro-2-methoxyphenyl)azepan-1-yl)-6-methylpyrimidin-2-amine] | < 600 nM | 300 to 1000 nM | 600 to 2000 nM
2 | CC(=O)Nc1ccc(Cl)c([C@@H]2COCCCN2c2cc(C)nc(N)n2)c1 [I-92] | < 600 nM | < 300 nM | < 600 nM
3 | CNC(=O)c1ccc([C@H]2COCCCN2c2cc(C)nc(N)n2)c(Cl)c1 [I-150, (S)-4-(4-(2-amino-6-methylpyrimidin-4-yl)-1,4-oxazepan-3-yl)-3-chloro-N-methylbenzamide] | < 600 nM | 300 to 1000 nM | 2000 to 5000 nM
4 | CNC(=O)c1ccc(Cl)c([C@@H]2COCCCN2c2cc(C)nc(N)n2)c1 [I-181] | < 600 nM | < 300 nM | < 600 nM
5 | CCS(=O)(=O)c1ccc([C@H]2COCCCN2c2cc(C)nc(N)n2)c(Cl)c1 [I-183, 4-(3-(2-chloro-4-(ethylsulfonyl)phenyl)-1,4-oxazepan-4-yl)-6-methylpyrimidin-2-amine] | < 600 nM | 300 to 1000 nM | < 600 nM
6 | Cc1cc(N2CCCOC[C@H]2c2ccc(C(N)=O)cc2Cl)nc(N)n1 [I-188] | < 600 nM | < 300 nM | 600 to 2000 nM
7 | Cc1cc(N2CCCOC[C@@H]2c2ccc(P(C)(C)=O)cc2Cl)nc(N)n1 [I-214, 4-[3-(2-chloro-4-dimethylphosphoryl-phenyl)-1,4-oxazepan-4-yl]-6-methyl-pyrimidin-2-amine] | < 600 nM | 300 to 1000 nM | 2000 to 5000 nM
8 | Cc1cc(N2CCCOC[C@@H]2c2ccc(NC3COC3)cc2Cl)nc(N)n1 [I-215, 4-[(3S)-3-[2-chloro-4-(oxetan-3-ylamino)phenyl]-1,4-oxazepan-4-yl]-6-methyl-pyrimidin-2-amine] | < 600 nM | < 300 nM | < 600 nM
9 | Cc1cc(N2CCCOC[C@@H]2c2ccc(N3CCOCC3)cc2Cl)nc(N)n1 [I-216, 4-[(3S)-3-(2-chloro-4-morpholino-phenyl)-1,4-oxazepan-4-yl]-6-methyl-pyrimidin-2-amine] | < 600 nM | < 300 nM | < 600 nM
10 | COC1CN(c2ccc([C@H]3COCCCN3c3cc(C)nc(N)n3)c(Cl)c2)C1 [I-217, 4-[(3S)-3-[2-chloro-4-(3-methoxyazetidin-1-yl)phenyl]-1,4-oxazepan-4-yl]-6-methyl-pyrimidin-2-amine] | < 600 nM | < 300 nM | < 600 nM
11 | COC1CCN(c2ccc([C@H]3COCCCN3c3cc(C)nc(N)n3)c(Cl)c2)C1 (stereo partly drawn) [I-218, 4-[(3S)-3-[2-chloro-4-(3-methoxypyrrolidin-1-yl)phenyl]-1,4-oxazepan-4-yl]-6-methyl-pyrimidin-2-amine] | < 600 nM | < 300 nM | < 600 nM
12 | Cc1cc(N2CCCOC[C@@H]2c2ccc(N3CCC4(CCOC4)C3)cc2Cl)nc(N)n1 (stereo partly drawn) [I-219, 4-[(3S)-3-[2-chloro-4-(2-oxa-7-azaspiro[4.4]nonan-7-yl)phenyl]-1,4-oxazepan-4-yl]-6-methyl-pyrimidin-2-amine] | < 600 nM | 300 to 1000 nM | < 600 nM
13 | Cc1cc(N2CCCOC[C@@H]2c2ccc(N3CC4COCC4C3)cc2Cl)nc(N)n1 (stereo partly drawn) [I-220, 4-[(3S)-3-[4-(1,3,3a,4,6,6a-hexahydrofuro[3,4-c]pyrrol-5-yl)-2-chloro-phenyl]-1,4-oxazepan-4-yl]-6-methyl-pyrimidin-2-amine] | < 600 nM | < 300 nM | < 600 nM
14 | Cc1cc(N2CCCOCC2c2ccc(S(=O)(=O)C3CCC3)cc2Cl)nc(N)n1 (stereo not drawn) [I-222, 4-(3-(2-chloro-4-(cyclobutylsulfonyl)phenyl)-1,4-oxazepan-4-yl)-6-methylpyrimidin-2-amine] | < 600 nM | 300 to 1000 nM | 600 to 2000 nM
15 | COc1ccc(F)cc1[C@H]1COCCCN1c1cc(C)nc(N)n1 [I-288] | < 600 nM | < 300 nM | 2000 to 5000 nM
16 | Cc1cc(N2CCCOCC2c2cc(Br)ccc2Cl)nc(N)n1 (stereo not drawn) [I-295] | < 600 nM | 300 to 1000 nM | 600 to 2000 nM
